Data as given in patent US20030083484A1, “Antisense modulation of short heterodimer partner-1 expression” (priority 2001, published 2003).
Strand notation (5' to 3'): a small letter for the sugar, then the base; units joined by * are phosphorothioate-linked, units joined directly phosphodiester-linked; [ ] holds rarer units or linkages, { } end groups; capitals alone tell only the bases. e = 2'-O-(2-methoxyethyl) (MOE); [5mC] = 5-methylcytosine; d = 2'-deoxy (DNA)

tested on: mouse short heterodimer partner-1 mRNA; assay: Inhibition of mouse short heterodimer partner-1 mRNA levels in primary hepatocytes, quantitative real-time PCR; type: cell-based; set-up: concentration or dose not given beside the values; settings: averages from two experiments
Protocol: Primary mouse hepatocytes were prepared from CD-1 mice purchased from Charles River Labs (Wilmington, Mass.) and were routinely cultured in Hepatoyte Attachment Media (Gibco) supplemented with 10% Fetal Bovine Serum (Gibco/Life Technologies, Gaithersburg, Md.), 250 nM dexamethasone (Sigma), and 10 nM bovine insulin (Sigma). Cells were seeded into 96-well plates (Falcon-Primaria #3872) at a density of 10000 cells/well for use in RT-PCR analysis.
Cells were harvested 16-24 hours after oligonucleotide treatment.
Vacuum was applied for 15 seconds. […] The elution step was repeated with an additional 60 μL water.
Total RNA is quantified using RiboGreen™ RNA quantification reagent from Molecular Probes.
Probes and primers to mouse short heterodimer partner-1 were designed to hybridize to a mouse short heterodimer partner-1 sequence, using published sequence information (GenBank accession number L75567, incorporated herein as SEQ ID NO: 10).
All cytidine residues are 5-methylcytidines. […] Data are averages from two experiments. If present, “N.D.” indicates “no data”.

Row | Substance | % INHIB (inhibition of mouse short heterodimer partner-1 mRNA levels)
1 | 148276 (antisense eA*eG*eA*eA*eA*dG*dA*d[5mC]*dT*d[5mC]*d[5mC]*dA*dG*dG*d[5mC]*eA*eG*e[5mC]*eG*e[5mC]) [compound 148276] | 56%
2 | 148268 (antisense eT*eG*e[5mC]*eA*eG*dG*dT*dG*d[5mC]*dG*dG*dT*dG*d[5mC]*dG*eG*eA*eG*e[5mC]*eA) [compound 148268] | 19%
3 | ISIS 148262: 2′-MOE gapmer, phosphorothioate, TGACTGGCCGGAGCTCATGG, targets mouse short heterodimer partner-1 RNA (antisense eT*eG*eA*e[5mC]*eT*dG*dG*d[5mC]*d[5mC]*dG*dG*dA*dG*d[5mC]*dT*e[5mC]*eA*eT*eG*eG) | at least 50%
4 | 148269 (antisense eT*eA*eG*eG*eA*d[5mC]*dA*dT*d[5mC]*d[5mC]*dA*dA*dG*dG*d[5mC]*e[5mC]*eT*e[5mC]*e[5mC]*e[5mC]) [compound 148269] | 59%
5 | 148273 (antisense eT*eG*eG*e[5mC]*eT*dT*d[5mC]*d[5mC]*dT*d[5mC]*dT*dA*dG*d[5mC]*dA*eG*eG*eA*eT*e[5mC]) [compound 148273] | 33%
6 | ISIS 148284: 2′-MOE gapmer, phosphorothioate, GAGGCACCAGACTCCATTCC, targets mouse short heterodimer partner-1 RNA (antisense eG*eA*eG*eG*e[5mC]*dA*d[5mC]*d[5mC]*dA*dG*dA*d[5mC]*dT*d[5mC]*d[5mC]*eA*eT*eT*e[5mC]*e[5mC]) | at least 50%
7 | ISIS 148269: 2′-MOE gapmer, phosphorothioate, TAGGACATCCAAGGCCTCCC, targets mouse short heterodimer partner-1 RNA (antisense eT*eA*eG*eG*eA*d[5mC]*dA*dT*d[5mC]*d[5mC]*dA*dA*dG*dG*d[5mC]*e[5mC]*eT*e[5mC]*e[5mC]*e[5mC]) | at least 50%
8 | 148263 (antisense eA*e[5mC]*e[5mC]*eT*eG*d[5mC]*dA*dG*dA*dG*d[5mC]*d[5mC]*d[5mC]*dT*dG*eG*e[5mC]*eA*eT*eG) [compound 148263] | 0%
9 | 148265 (antisense eA*eG*eG*eT*eG*d[5mC]*dA*dA*d[5mC]*dG*dG*dG*d[5mC]*d[5mC]*dT*eG*eG*eT*e[5mC]*e[5mC]) [compound 148265] | 41%
10 | 148282 (antisense eT*eG*eA*eT*eG*dT*d[5mC]*dA*dA*d[5mC]*dG*dT*d[5mC]*dT*d[5mC]*e[5mC]*e[5mC]*eA*eT*eG) [compound 148282] | 22%
11 | 148285 (antisense eA*e[5mC]*eA*eG*eT*dT*dA*dG*dT*dA*dG*dT*dG*dT*dA*e[5mC]*eA*e[5mC]*eT*eG) [compound 148285] | 50%
12 | 148278 (antisense e[5mC]*eA*e[5mC]*eA*eG*dT*dG*d[5mC]*d[5mC]*d[5mC]*dA*dG*dT*dG*dA*eG*e[5mC]*e[5mC]*eT*e[5mC]) [compound 148278] | 36%
13 | ISIS 148285: 2′-MOE gapmer, phosphorothioate, ACAGTTAGTAGTGTACACTG, targets mouse short heterodimer partner-1 RNA (antisense eA*e[5mC]*eA*eG*eT*dT*dA*dG*dT*dA*dG*dT*dG*dT*dA*e[5mC]*eA*e[5mC]*eT*eG) | at least 50%
14 | ISIS 148277: 2′-MOE gapmer, phosphorothioate, TTCAGGTACGCATACTCCTT, targets mouse short heterodimer partner-1 RNA (antisense eT*eT*e[5mC]*eA*eG*dG*dT*dA*d[5mC]*dG*d[5mC]*dA*dT*dA*d[5mC]*eT*e[5mC]*e[5mC]*eT*eT) | at least 50%
15 | ISIS 148272: 2′-MOE gapmer, phosphorothioate, CGGAGCCTCAGCCACCTCGA, targets mouse short heterodimer partner-1 RNA (antisense e[5mC]*eG*eG*eA*eG*d[5mC]*d[5mC]*dT*d[5mC]*dA*dG*d[5mC]*d[5mC]*dA*d[5mC]*e[5mC]*eT*e[5mC]*eG*eA) | at least 50%
16 | 148279 (antisense eG*eG*eT*eA*eG*dA*dG*dG*d[5mC]*d[5mC]*dA*dT*dG*dA*dG*eG*eA*eG*eG*eA) [compound 148279] | 43%
17 | ISIS 148287: 2′-MOE gapmer, phosphorothioate, GTTCTGTACAAAGTCAGGAG, targets mouse short heterodimer partner-1 RNA (antisense eG*eT*eT*e[5mC]*eT*dG*dT*dA*d[5mC]*dA*dA*dA*dG*dT*d[5mC]*eA*eG*eG*eA*eG) | at least 50%

Row | Substance | % INHIB (inhibition of mouse short heterodimer partner-1 mRNA levels)
18 | 148275 (antisense eT*eG*eT*eG*eG*d[5mC]*d[5mC]*dG*dG*dT*d[5mC]*dT*dG*dA*dT*eG*eG*e[5mC]*eT*eG) [compound 148275] | 28%
19 | 148264 (antisense eG*e[5mC]*eA*eT*eA*d[5mC]*dA*dG*dA*dA*dT*dA*dG*dT*d[5mC]*eG*eG*eA*e[5mC]*eG) [compound 148264] | 60%
20 | ISIS 148271: 2′-MOE gapmer, phosphorothioate, AACCCAAGCAGGAAGAGAGG, targets mouse short heterodimer partner-1 RNA (antisense eA*eA*e[5mC]*e[5mC]*e[5mC]*dA*dA*dG*d[5mC]*dA*dG*dG*dA*dA*dG*eA*eG*eA*eG*eG) | at least 50%
21 | 148267 (antisense e[5mC]*eA*e[5mC]*eA*eG*dA*d[5mC]*dG*d[5mC]*dA*d[5mC]*dA*dG*dG*d[5mC]*e[5mC]*eG*e[5mC]*eT*eG) [compound 148267] | 28%
22 | ISIS 148286: 2′-MOE gapmer, phosphorothioate, AGTCATCAAGGGCTTGCTGG, targets mouse short heterodimer partner-1 RNA (antisense eA*eG*eT*e[5mC]*eA*dT*d[5mC]*dA*dA*dG*dG*dG*d[5mC]*dT*dT*eG*e[5mC]*eT*eG*eG) | at least 50%
23 | 148270 (antisense e[5mC]*eA*e[5mC]*eT*e[5mC]*dT*dA*dG*d[5mC]*dA*dG*d[5mC]*d[5mC]*dG*d[5mC]*e[5mC]*eG*e[5mC]*eT*eG) [compound 148270] | 46%
24 | 148272 (antisense e[5mC]*eG*eG*eA*eG*d[5mC]*d[5mC]*dT*d[5mC]*dA*dG*d[5mC]*d[5mC]*dA*d[5mC]*e[5mC]*eT*e[5mC]*eG*eA) [compound 148272] | 69%
25 | 148266 (antisense eA*eG*eG*e[5mC]*eA*dG*dT*dG*dG*d[5mC]*dT*dG*dT*dG*dA*eG*eA*eT*eG*e[5mC]) [compound 148266] | 44%
26 | 148271 (antisense eA*eA*e[5mC]*e[5mC]*e[5mC]*dA*dA*dG*d[5mC]*dA*dG*dG*dA*dA*dG*eA*eG*eA*eG*eG) [compound 148271] | 56%
27 | 148281 (antisense eA*eG*eA*eA*eG*dA*dG*dA*dT*d[5mC]*dT*dA*d[5mC]*d[5mC]*dA*eG*eA*eA*eG*eG) [compound 148281] | 48%
28 | 148274 (antisense eG*eG*e[5mC]*eA*e[5mC]*d[5mC]*d[5mC]*dT*dG*dG*dG*dT*dA*d[5mC]*d[5mC]*eG*e[5mC]*eT*eG*e[5mC]) [compound 148274] | 22%
29 | ISIS 148264: 2′-MOE gapmer, phosphorothioate, GCATACAGAATAGTCGGACG, targets mouse short heterodimer partner-1 RNA (antisense eG*e[5mC]*eA*eT*eA*d[5mC]*dA*dG*dA*dA*dT*dA*dG*dT*d[5mC]*eG*eG*eA*e[5mC]*eG) | at least 50%
30 | 148280 (antisense eG*eT*eG*e[5mC]*e[5mC]*dT*dG*dG*dA*dA*dT*dG*dT*dT*d[5mC]*eT*eT*eG*eA*eG) [compound 148280] | 33%
31 | 148277 (antisense eT*eT*e[5mC]*eA*eG*dG*dT*dA*d[5mC]*dG*d[5mC]*dA*dT*dA*d[5mC]*eT*e[5mC]*e[5mC]*eT*eT) [compound 148277] | 62%
32 | ISIS 148276: 2′-MOE gapmer, phosphorothioate, AGAAAGACTCCAGGCAGCGC, targets mouse short heterodimer partner-1 RNA (antisense eA*eG*eA*eA*eA*dG*dA*d[5mC]*dT*d[5mC]*d[5mC]*dA*dG*dG*d[5mC]*eA*eG*e[5mC]*eG*e[5mC]) | at least 50%
33 | 148262 (antisense eT*eG*eA*e[5mC]*eT*dG*dG*d[5mC]*d[5mC]*dG*dG*dA*dG*d[5mC]*dT*e[5mC]*eA*eT*eG*eG) [compound 148262] | 50%
